Laboratory results: patent publication US20260283924A1, “TOPICAL COMPOSITIONS FOR PROMOTING HAIR GROWTH” (ESTETRA SRL, priority 2023, published 2026)

Assays:
[1] = Antioxidant activity measured with Skin-Biosense sensor; conditions: H2O2 5 mM
Description: The antioxidant activity of E4 was evaluated using the Skin-Biosense® sensor, a technology developed by Qima Life Sciences (Gencay, France). This electrochemical sensor measures the electron transfer between two conductive elements: the sensor and a solution of H2O2. The H2O2 solution is used as a marker for the determination of the detoxification power: as H2O2 is one of the most oxidizing non-radical species, any molecule capable of decreasing its concentration can be considered as an antioxidant. When a sample is in the presence of H2O2, all its antioxidative species spontaneously react with it and decrease its quantity. As the area of the peak measured by the sensor is directly proportional to H2O2 concentration, the detoxifying activity of a compound is evaluated by its modulation of the peak area.
H2O2 5 mM in electrolytic ethanol solution was mixed with E4 in electrolytic ethanol solutions at several concentrations (0.16-0.5-1.6-5-16-50 mM), and the H2O2 oxidation peaks area were measured. The power of the antioxidant activity was calculated by comparing the peak area of the H202 solution with the peak area of the H2O2 solution mixed with an E4 solution.

[2] = tested on: human anagen VI scalp HFs; assay: LDH release into the medium (cytotoxicity), healthy donor hair follicle organ culture; assay type: cell-based; conditions: all tested concentrations (300 nM, 3 μM, 30 μM)
Description: (§1) 12-44 full-length frontotemporal hair follicles (HF) were obtained from four healthy human female donors >50 years old. […] Donor 2:29; Donor 3:44; Donor 4:32). After microdissection from skin as described in the art (Edelkamp et al., Methods Mol Biol, 2020, 2154:105-119; and Langan et al., Exp Dermatol, 2015 December; 24(12):903-1), HFs were placed in adequate culture medium and allowed a 24 h rest period to allow them to recover from the trauma of microdissection. Test substance (either vehicle (0.3% EtOH) or E4 at concentrations of 30 μM, 3 μM or 300 nM) was added to the medium at the end of the 24 h. Total culturing time was 5-9 days depending on the stage of the HFs in the vehicle group. The experimental design for a 6-days HF organ culture experiment is depicted in FIG. 9.
LDH is released from the cytoplasm of damaged cells into the culture medium. Therefore, the cytotoxicity of agents can be estimated based on the activity of LDH present in the culture medium using a colorimetric assay (Cytotoxicity Detection Kit [LDH], Roche) as described (Gherardini et al Int J Cosmet Sci, 2019 April; 41(2):164-182). The measurements were performed on supernatants collected on days respective to each culture and normalized to blank.
For the maximum release, HFs were treated with 1% Triton X 100 in vehicle medium at 37° C. for 30 minutes in order to induce maximum LDH release into the medium.

[3] = tested on: human anagen VI scalp HFs (healthy female donors); assay: Healthy female donor hair follicle organ culture (ex vivo model), Example 7; assay type: cell-based; conditions: for hair shaft production: vs vehicle
Description: as §1
This model allows to assess if E4 treatment is able to prolong anagen and/or to delay catagen initiation in healthy female subjects. Clinically, hair loss is associated with a reduction of HFs in anagen or with a shortening of anagen duration. Promoting anagen might thus limit hair loss. The following parameters were investigated:
To determine the HF length, each HF was measured from the end of the bulb connective tissue sheath to the end of the distal outer root sheath (ORS), using a digital light microscope at 50× magnification (VHX 900 Keyence Corporation, Osaka, Japan) and the affiliated software (Edelkamp et al., Methods Mol Biol, 2020, 2154:105-119; and Langan et al., Exp Dermatol, 2015 December; 24(12):903-1). Measurements were obtained at baseline, after 24 h rest period and subsequently every 24-48 h during the entire duration of the experiment. Elongation is expressed as millimeters of growth and/or as percentage elongation from the baseline measurement.
Hair cycle staging and calculation of hair cycle score is indicative of hair cycle progression and anagen-catagen transition (Langan et al., Exp Dermatol, 2015). Hair cycle staging and hair cycle scoring was performed at the end of the culture. The hair cycle stage of each HF was determined according to several established macroscopic and microscopic parameters (Langan et al Exp Dermatol, 2015). Microscopic hair cycle staging was determined using Ki-67/TUNEL immunohistology and Masson-Fontana histochemistry. Hair cycle staging was analyzed by calculating the percentage of HFs in each hair cycle stage. Hair cycle score was determined by giving an arbitrary score to each hair cycle stage as following: anagen: 100, early catagen: 200, mid catagen: 300, late catagen: 400, dystrophic 500.
Germinative hair matrix keratinocytes proliferate mostly during anagen. […] Apoptosis of hair matrix keratinocytes is used as an additional indicator of anagen/catagen transition.
Proliferation was assessed by quantification of the percentage of hair matrix keratinocytes in a clearly specified area (germinative hair matrix keratinocytes, below the Auber's line) that were positive for the proliferation marker Ki67, whereas apoptosis was assessed using TUNEL (TdT-mediated dUTP-biotin nick-end labelling) immunofluorescence in the same keratinocyte population (below the Auber's line) and in the precortical hair matrix keratincoytes (above the Auber's line) (Langan et al., Exp Dermatol 2015) (FIG. 11).
Alkaline phosphatase is an indicator of DP inductivity (Yang, J Dermatol Sci, 2010 January; 57(1):2-11). Alkaline phosphatase in situ activity was measured in the DP.
Versican, a large chondroitin sulfate proteoglycan molecule, is expressed in DP in anagen HFs and diminishes in catagen HFs and its expression correlates with hair inductive properties (Yang, J Dermatol Sci 2010). Versican intensity was analyzed in the DP.
CD34 is a marker expressed by the progeny of HF bulge stem cells. It is expressed in the most external layer of the outer root sheet (ORS) below the isthmus (sub-bulge to suprabulbar regions) (Purba et al., BioEssays, 2014 May; 36(5):513-25). […]

[4] = 300 nM and 30 μM, tendentially vs vehicle
[5] = 300 nM, 3 μM, 30 μM, listed as Estetrol
[6] = 3 μM, significantly vs vehicle, listed as estetrol

SMILES: C[C@]12CC[C@@H]3c4ccc(O)cc4CC[C@H]3[C@@H]1[C@@H](O)[C@@H](O)[C@@H]2O [Formulation E4, 1,3,5 (10)-estratrien-3,15alpha,16alpha,17beta-tetrol]
- antioxidant activity (in words) ([1]; E4 0.16-50 mM): potent antioxidant activity
- antioxidant activity ([1]; highest E4 concentration, 50000 µM): 100%
- antioxidant activity, mean power ([1]; molar ratio E4/H2O2 of 1): 77.5%
- HF cytotoxicity (LDH release into the medium) [2]: did not induce HF cytotoxicity
- HF cytotoxicity (LDH release into the medium) ([2]; listed as Estetrol): does not induce LDH release into the medium
- total number of cells in the DP stalk ([3]; 300 nM and 3 μM): significantly reduced the total number of cells in the DP stalk
- hair matrix keratinocytes proliferation (Ki-67) [3, 4]: increased hair matrix keratinocytes proliferation
- microscopic hair cycle staging: anagen [3, 4]: prolonged anagen
- percentage of CD34 positive cells, suprabulbar ORS [3, 4]: increased the percentage of CD34 positive cells
- microscopic hair cycle staging: anagen ([3]; 300 nM and 30 μM, tendentially vs vehicle, listed as estetrol): maintain longer HFs in anagen
- density of cells in the inductive dermal cup ([3]; 300 nM, 3 μM, 30 μM): no significant impact on the density of cells in the inductive dermal cup
- hair matrix keratinocytes apoptosis (TUNEL) ([3]; 300 nM, 3 μM, 30 μM): without affecting hair matrix keratinocytes apoptosis
- percentage of K15 positive cells, suprabulbar ORS ([3]; 300 nM, 3 μM, 30 μM): did not have any effect on the percentage of K15 positive cells
- hair matrix keratinocytes apoptosis (TUNEL) [3, 5]: apoptosis was not affected
- hair shaft production ([3]; 300 nM, 3 μM, 30 μM): did not modify hair shaft production
- hair shaft production [3, 5]: does not impact hair shaft production
- proliferation of K15 positive cells (Ki-67), suprabulbar ORS ([3]; 300 nM, significantly vs vehicle): decreased their proliferation
- percentage of K15 positive cells, bulge basal layer ([3]; 3 μM): significantly decreased the percentage of K15 positive cells
- proliferation of K15 positive cells (Ki-67), bulge basal layer ([3]; 3 μM and 300 nM, tendentially vs vehicle): increased their proliferation
- hair matrix keratinocytes proliferation (Ki-67) ([3]; 3 μM, significantly vs vehicle): increased hair matrix keratinocytes proliferation
- microscopic hair cycle staging: anagen ([3]; 3 μM, significantly vs vehicle): prolonged anagen
- percentage of CD34 positive cells, suprabulbar ORS ([3]; 3 μM, significantly vs vehicle): increased the percentage of CD34 positive cells
- hair matrix keratinocytes proliferation (Ki-67) [3, 6]: increases hair matrix keratinocytes proliferation
- microscopic hair cycle staging: anagen [3, 6]: maintain longer HFs in anagen
- proliferation of K15 positive cells (Ki-67), suprabulbar ORS ([3]; 3 μM, tendentially vs vehicle): decreased their proliferation
- proliferation of K15 positive cells (Ki-67), bulge basal layer ([3]; 30 μM, significantly vs vehicle): increased their proliferation
- density of cells in the DP stalk ([3]; all concentrations): tendentially decreased the density of cells
- alkaline phosphatase activity in DP cells ([3]; all tested concentrations): tendentially increased
- density of cells in the DP ([3]; all tested concentrations): did not strikingly affect the density of cells in the DP
- versican expression in DP cells ([3]; all tested concentrations): tendentially increased versican expression
